Our source for the inhibition values is patent US12528802B2, “Heterocyclic compound” (Takeda Pharmaceutical Company Limited, priority 2019, dated 2026).

The target in the assay is T1, glucosylceramide synthase (Homo sapiens, UniProt Q16739).
T1 construct: made in house; host or cells: Expi293F cells (transient expression, pcDNA3.3-TOPO vector); microsome fraction used as enzyme source
T1 sequence (Q16739 1-394): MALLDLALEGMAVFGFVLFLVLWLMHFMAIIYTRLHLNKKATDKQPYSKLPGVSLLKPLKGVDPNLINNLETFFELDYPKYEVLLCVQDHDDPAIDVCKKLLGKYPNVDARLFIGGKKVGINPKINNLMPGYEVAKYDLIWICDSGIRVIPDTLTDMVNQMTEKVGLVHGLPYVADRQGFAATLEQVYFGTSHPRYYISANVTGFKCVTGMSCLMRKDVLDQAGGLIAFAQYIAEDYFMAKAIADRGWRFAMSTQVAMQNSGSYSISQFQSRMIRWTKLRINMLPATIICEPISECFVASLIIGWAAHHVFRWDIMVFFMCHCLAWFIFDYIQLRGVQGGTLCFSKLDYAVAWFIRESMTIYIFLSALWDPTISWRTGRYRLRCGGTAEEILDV
Put plainly: Glucosylceramide synthase (GCS) enzyme assay, microsome fraction, C8 glucosylceramide quantified by Rapidfire MS/MS. To be noted: test compound 10 μM; 1.7 μM UDP-glucose, 3 μM C8 ceramide; room temperature 60 min; read-out: GCS enzyme inhibitory rate at 10 μM (%) (% of control). It counts as biochemical. The essentials:
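Test compound, 10 μM final, was run against human GCS from transfected Expi293F microsome fractions, using substrate solution of 6 μM C8 ceramide (in DOPC liposomes) plus 3.4 μM UDP-glucose, pH 7.5 Tris buffer, 60 min, room temperature. Product C8 glucosylceramide measured by Rapidfire MS/MS against an internal standard, % inhibition referenced to no-enzyme and DMSO wells.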
In the case of `O=C1c2ccnc(-c3ccccc3OCC(F)(F)F)c2CN1c1ccc(F)cn1` [Example 51, 2-(5-fluoropyridin-2-yl)-4-[2-(2,2,2-trifluoroethoxy)phenyl]-2,3-dihydro-1H-pyrrolo[3,4-c]pyridin-1-one], the inhibition at 10 µM came out at 99%.

As to `O=C1c2ccnc(-c3ccc(F)cc3OC(F)F)c2CN1c1ccc(F)cn1` [Example 52, 4-[2-(difluoromethoxy)-4-fluorophenyl]-2-(5-fluoropyridin-2-yl)-2,3-dihydro-1H-pyrrolo[3,4-c]pyridin-1-one], the inhibition at 10 µM stood at 67%.

For `O=C1c2ccnc(-c3ccc(F)cc3OC(F)F)c2CN1c1ccc(OC(F)F)cn1` [Example 53, 4-[2-(difluoromethoxy)-4-fluorophenyl]-2-[5-(difluoromethoxy)pyridin-2-yl]-2,3-dihydro-1H-pyrrolo[3,4-c]pyridin-1-one], the inhibition at 10 µM was found to be 67%.

Consider `O=C1c2ccnc(-c3ccccc3OCC(F)(F)F)c2CN1c1ccc(OC(F)F)cn1` [Example 54, 2-[5-(difluoromethoxy)pyridin-2-yl]-4-[2-(2,2,2-trifluoroethoxy)phenyl]-2,3-dihydro-1H-pyrrolo[3,4-c]pyridin-1-one], for which the inhibition at 10 µM turned out to be 100%.

`O=C1c2ccnc(-c3ccc(F)cc3OCC(F)(F)F)c2CN1c1ccc(OC(F)F)cn1` [Example 55, 2-[5-(difluoromethoxy)pyridin-2-yl]-4-[4-fluoro-2-(2,2,2-trifluoroethoxy)phenyl]-2,3-dihydro-1H-pyrrolo[3,4-c]pyridin-1-one]: the inhibition at 10 µM was 98%.

`O=C1c2ccnc(-c3ccccc3OCC(F)(F)F)c2CN1c1ccc(OC(F)(F)F)cn1` [Example 56, 4-[2-(2,2,2-trifluoroethoxy)phenyl]-2-[5-(trifluoromethoxy)pyridin-2-yl]-2,3-dihydro-1H-pyrrolo[3,4-c]pyridin-1-one]: the inhibition at 10 µM was determined as 100%.

With `O=C1c2ccnc(-c3ccc(F)cc3OC(F)F)c2CN1c1ccc(OC(F)(F)F)cn1` [Example 57, 4-[2-(difluoromethoxy)-4-fluorophenyl]-2-[5-(trifluoromethoxy)pyridin-2-yl]-2,3-dihydro-1H-pyrrolo[3,4-c]pyridin-1-one], the inhibition at 10 µM came to 74%.

As to `O=C1c2ccnc(-c3ccc(F)cc3OCC(F)(F)F)c2CN1c1ccc(OC(F)(F)F)cn1` [Example 58, 4-[4-fluoro-2-(2,2,2-trifluoroethoxy)phenyl]-2-[5-(trifluoromethoxy)pyridin-2-yl]-2,3-dihydro-1H-pyrrolo[3,4-c]pyridin-1-one], the inhibition at 10 µM was 96%.

As to `O=C1c2ccnc(-c3ccc(F)cc3OCC(F)(F)F)c2CN1c1ccc(F)cn1` [Example 59, 2-(5-fluoropyridin-2-yl)-4-[4-fluoro-2-(2,2,2-trifluoroethoxy)phenyl]-2,3-dihydro-1H-pyrrolo[3,4-c]pyridin-1-one], the inhibition at 10 µM was 88%.

As to `O=C1c2ccnc(-c3ccccc3OCC(F)(F)F)c2CN1c1ccc(C(F)(F)F)cn1` [Example 60, 4-[2-(2,2,2-trifluoroethoxy)phenyl]-2-[5-(trifluoromethyl)pyridin-2-yl]-2,3-dihydro-1H-pyrrolo[3,4-c]pyridin-1-one], the inhibition at 10 µM was found to be 99%.

For the compound `O=C1c2ccnc(-c3ccc(F)cc3OCC(F)(F)F)c2CN1c1ccc(C(F)(F)F)cn1` [Example 61, 4-[4-fluoro-2-(2,2,2-trifluoroethoxy)phenyl]-2-[5-(trifluoromethyl)pyridin-2-yl]-2,3-dihydro-1H-pyrrolo[3,4-c]pyridin-1-one], the inhibition at 10 µM is 85%.

`O=C1c2ccnc(-c3ccccc3OC(F)F)c2CN1c1ccc(OC(F)(F)F)cn1` [Example 62, 4-[2-(difluoromethoxy)phenyl]-2-[5-(trifluoromethoxy)pyridin-2-yl]-2,3-dihydro-1H-pyrrolo[3,4-c]pyridin-1-one]: the inhibition at 10 µM was 95%.

On to `O=C1c2ccnc(-c3ccccc3OC(F)F)c2CN1c1ccc(F)cn1` [Example 63, 4-[2-(difluoromethoxy)phenyl]-2-(5-fluoropyridin-2-yl)-2,3-dihydro-1H-pyrrolo[3,4-c]pyridin-1-one], for which the inhibition at 10 µM amounted to 96%.

As to `O=C1c2ccnc(-c3ccccc3OC(F)F)c2CN1c1ccc(OC(F)F)cn1` [Example 64, 4-[2-(difluoromethoxy)phenyl]-2-[5-(difluoromethoxy)pyridin-2-yl]-2,3-dihydro-1H-pyrrolo[3,4-c]pyridin-1-one], the inhibition at 10 µM is 96%.

Consider `O=C1c2ccnc(-c3ccc(F)cc3OCC(F)(F)F)c2CN1c1ccc(OC(F)F)nc1` [Example 65, 2-[6-(difluoromethoxy)pyridin-3-yl]-4-[4-fluoro-2-(2,2,2-trifluoroethoxy)phenyl]-2,3-dihydro-1H-pyrrolo[3,4-c]pyridin-1-one], for which the inhibition at 10 µM is 95%.

Consider `O=C1c2ccnc(-c3ccccc3OC(F)F)c2CN1c1ccc(C(F)(F)F)cn1` [Example 67, 4-[2-(difluoromethoxy)phenyl]-2-[5-(trifluoromethyl)pyridin-2-yl]-2,3-dihydro-1H-pyrrolo[3,4-c]pyridin-1-one], for which the inhibition at 10 µM was 95%.

As for `N#Cc1ccc(N2Cc3c(ccnc3-c3ccccc3OCC(F)(F)F)C2=O)cc1` [Example 68, 4-{1-oxo-4-[2-(2,2,2-trifluoroethoxy)phenyl]-1,3-dihydro-2H-pyrrolo[3,4-c]pyridin-2-yl}benzonitrile], the inhibition at 10 µM worked out at 87%.

For the compound `N#Cc1ccc(N2Cc3c(ccnc3-c3ccc(F)cc3OC(F)F)C2=O)nc1` [Example 70, 6-{4-[2-(difluoromethoxy)-4-fluorophenyl]-1-oxo-1,3-dihydro-2H-pyrrolo[3,4-c]pyridin-2-yl}pyridine-3-carbonitrile], the inhibition at 10 µM amounted to 53%.

Take `N#Cc1ccc(N2Cc3c(ccnc3-c3ccc(F)cc3OCC(F)(F)F)C2=O)nc1` [Example 71, 6-{4-[4-fluoro-2-(2,2,2-trifluoroethoxy)phenyl]-1-oxo-1,3-dihydro-2H-pyrrolo[3,4-c]pyridin-2-yl}pyridine-3-carbonitrile]: the inhibition at 10 µM came to 99%.

`N#Cc1ccc(N2Cc3c(ccnc3-c3ccccc3OCC(F)(F)F)C2=O)nc1` [Example 72, 6-{1-oxo-4-[2-(2,2,2-trifluoroethoxy)phenyl]-1,3-dihydro-2H-pyrrolo[3,4-c]pyridin-2-yl}pyridine-3-carbonitrile]: the inhibition at 10 µM stood at 100%.

`N#Cc1ccc(N2Cc3c(ccnc3-c3ccccc3OC(F)F)C2=O)nc1` [Example 73, 6-{4-[2-(difluoromethoxy)phenyl]-1-oxo-1,3-dihydro-2H-pyrrolo[3,4-c]pyridin-2-yl}pyridine-3-carbonitrile]: the inhibition at 10 µM was found to be 90%.

Regarding `O=C1c2ccnc(-c3ccccc3OC(F)F)c2CN1c1ccc(OC(F)F)nc1` [Example 74, 4-[2-(difluoromethoxy)phenyl]-2-[6-(difluoromethoxy)pyridin-3-yl]-2,3-dihydro-1H-pyrrolo[3,4-c]pyridin-1-one], the inhibition at 10 µM was found to be 91%.

With `O=C1c2ccnc(-c3ccccc3OCC(F)(F)F)c2CN1c1ccc(OC(F)F)nc1` [Example 75, 2-[6-(difluoromethoxy)pyridin-3-yl]-4-[2-(2,2,2-trifluoroethoxy)phenyl]-2,3-dihydro-1H-pyrrolo[3,4-c]pyridin-1-one], the inhibition at 10 µM amounted to 100%.

Regarding `O=C1c2ccnc(-c3ccncc3OCC(F)(F)F)c2CN1c1ccc(F)cc1` [Example 77, 2-(4-fluorophenyl)-4-[3-(2,2,2-trifluoroethoxy)pyridin-4-yl]-2,3-dihydro-1H-pyrrolo[3,4-c]pyridin-1-one], the inhibition at 10 µM is 91%.

Consider `O=C(c1ccc(-c2nccc3c2CN(c2ccc(F)cc2)C3=O)c(OC(F)F)c1)N1CCC1` [Example 78, 4-[4-(azetidine-1-carbonyl)-2-(difluoromethoxy)phenyl]-2-(4-fluorophenyl)-2,3-dihydro-1H-pyrrolo[3,4-c]pyridin-1-one], for which the inhibition at 10 µM amounted to 79%.

As to `O=C1c2cnn(-c3ccc(F)cc3OCC(F)(F)F)c2CN1c1ccc(F)cc1` [Example 79, 5-(4-fluorophenyl)-1-[4-fluoro-2-(2,2,2-trifluoroethoxy)phenyl]-5,6-dihydropyrrolo[3,4-c]pyrazol-4(1H)-one], the inhibition at 10 µM stood at 75%.

For the compound `COc1cc(F)ccc1-c1cncc2c1CN(c1ccc(F)cc1)C2=O` [Example 80, 7-(4-fluoro-2-methoxyphenyl)-2-(4-fluorophenyl)-1,2-dihydro-3H-pyrrolo [3,4-c]pyridin-3-one], the inhibition at 10 µM came to 72%.

With `Cn1cc(N2Cc3c(ccnc3-c3ccc(F)cc3OCC(F)(F)F)C2=O)cn1` [Example 81, 4-[4-fluoro-2-(2,2,2-trifluoroethoxy)phenyl]-2-(1-methyl-1H-pyrazol-4-yl)-2,3-dihydro-1H-pyrrolo[3,4-c]pyridin-1-one], the inhibition at 10 µM was 86%.

Take `Cc1cc(N2Cc3c(ccnc3-c3ccc(F)cc3OCC(F)(F)F)C2=O)nn1C` [Example 82, 2-(1,5-dimethyl-1H-pyrazol-3-yl)-4-[4-fluoro-2-(2,2,2-trifluoroethoxy)phenyl]-2,3-dihydro-1H-pyrrolo[3,4-c]pyridin-1-one]: the inhibition at 10 µM is 88%.
